Results from patent US12473332B2, “Modified peptides and associated methods of use” (Advanced Technologies For Novel Therapeutics, LLC, priority 2019, dated 2025).
Where no end group is shown, it is not given here.

Columns and labels:
AKT [1] = assay: AKT activity in cultured neurons treated with PKA inhibitor or activator (AKT phosphorylation at Thr-308 and Ser-473); assay type: cell-based
Experimental: To evaluate the significance of the AKT-PKAc interaction, kinase inhibitors were employed. […] Thus, cultured neurons were treated with the selective PKA inhibitor, H-89, and the potent PKA activator, forskolin, and AKT activity was analyzed.

glioblastoma cells = conditions: literature; read-out: IC-50 on glioblastoma cells; cited from earlier work
Neuroblastoma cells = conditions: literature; read-out: IC-50 on neuroblastoma cells; cited from earlier work
[2] = trypan blue staining, live and dead cell count; assay type: cell-based; conditions: 12 to 72 hours
Source text: Therefore, in addition to capturing live images, cells were stained with trypan blue at different time intervals following treatment with ZaTa and counted by a light microscope using a hemocytometer.

AKT [3] = molecular target: AKT (Homo sapiens, UniProt P31749); assay: in vitro AKT kinase assay with Ser-9 GSK-3 GST fusion protein substrate; PKAc peptide library screen; assay type: biochemical; conditions: Ser-9 GSK-3 GST substrate
AKT1 = AKT1 (Homo sapiens, UniProt P31749); assay: AKT1 in vitro kinase assay, γ-32P incorporation into Ser-21 GSK-3β substrate peptide; assay type: biochemical
Chain of AKT1 (P31749 whole entry): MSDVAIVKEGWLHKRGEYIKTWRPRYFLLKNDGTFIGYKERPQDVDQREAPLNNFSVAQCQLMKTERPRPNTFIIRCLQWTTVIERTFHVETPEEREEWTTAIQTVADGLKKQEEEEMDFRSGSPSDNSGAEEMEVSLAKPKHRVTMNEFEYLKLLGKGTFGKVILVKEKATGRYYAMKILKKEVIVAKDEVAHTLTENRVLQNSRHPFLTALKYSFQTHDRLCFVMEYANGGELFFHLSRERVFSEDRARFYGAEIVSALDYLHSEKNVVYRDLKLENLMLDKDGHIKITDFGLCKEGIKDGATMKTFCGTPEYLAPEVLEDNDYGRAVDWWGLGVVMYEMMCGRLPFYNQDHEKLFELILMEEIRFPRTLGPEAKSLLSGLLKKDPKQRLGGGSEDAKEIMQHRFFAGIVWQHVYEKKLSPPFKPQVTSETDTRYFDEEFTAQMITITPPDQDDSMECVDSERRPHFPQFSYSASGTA

Chain of AKT (Homo sapiens, UniProt P31749) (P31749 whole entry, the tested form may be a part): as the sequence (P31749 whole entry) above

inhibitory effect on catalytic activity of AKT (AKT [3]) | Compound | number of dead cells [2] | also measured
– | O=S(=O)(NCCNC/C=C/c1ccc(Br)cc1)c1cccc2cnccc12 [Peptide H-89, H-89] | – | activity of AKT (activation-dependent phosphorylation at Thr-308 and Ser-473) (AKT [1]): dose-dependent increase in the activity of AKT
– | Cn1nnc2c(C(N)=O)ncn2c1=O [Temodar] | – | IC50 (glioblastoma cells): 421 to 1020 µM; IC50 (Neuroblastoma cells): 602 µM
– | AKRVKGRDWTLCGTPEY [ZaTa^T8D] | a significant increase in the number of dead cells was not seen | –
– | AKRVKGRTWDLCGTPEY [ZaTa^T10D] | a significant increase in the number of dead cells was not seen | –
– | AKRVKGRTWTLCGRPEY [ZaTa^T14R] | a significant increase in the number of dead cells was observed | –
– | AKRVKGRTWTLCGTPER [ZaTa^Y17R] | a significant increase in the number of dead cells was observed | –
significant inhibitory effects | D-Q-Q-G-Y-I-Q-V-T-D-F-G-F-A-K (DQQGYIQVTDFGFAK; MISC_FEATURE - Peptide_SEQ ID NO:56) [Peptide 49] | – | –
– | G-F-A-K-R-V-K-G-R-T-W-T-L (GFAKRVKGRTWTL; MISC_FEATURE - Peptide_SEQ ID NO:59) [Peptide 52] | – | inhibition of AKT1 catalytic activity (AKT1): not able to inhibit AKT1
significant inhibitory effects | G-V-L-I-Y-E-M-A-A-G-Y-P-P-F-F (GVLIYEMAAGYPPFF; MISC_FEATURE - Peptide_SEQ ID NO:70) [Peptide 63] | – | –
significant inhibitory effects | W-A-L-G-V-L-I-Y-E-M-A-A-G-Y (WALGVLIYEMAAGY; MISC_FEATURE - Peptide_SEQ ID NO:69) [Peptide 62] | – | –
significant inhibitory effects | Y-E-M-A-A-G-Y-P-P-F-F-A (YEMAAGYPPFFA; MISC_FEATURE - Peptide_SEQ ID NO:71) [Peptide 64] | – | –
